One assay has as its target T1, mice serum BChE (Mus musculus, UniProt Q03311).
T1 construct: mice serum was the source of BChE; from tissue; host or cells: mouse serum
The assay can be described thus: BChE inhibition, Ellman spectrophotometric assay, mice serum. The assay is classed as biochemical. The conditions noted are these: for IC50: mean ± SEM, at least three measures, butyrylthiocholine iodide substrate. As to the method: (§1) AChE inhibiting activities were measured by a spectrophotometric assay developed by Ellman et al. It was based on the fact that AChE catalyzes the hydrolysis of acetylcholine, releasing choline and acetic acid. In this assay, acetylthiocholine (AChSC) is hydrolyzed by the enzyme, releasing thiocholine containing a sulfhydrylic group able to react with color indicating reagent. Yellowish products were measured spectrophotometrically, the amount of which reflects the activity of AChE. All the procedures were operated according to the instruction of the AChE reagent kit produced by Nanjing Jiancheng Bio-engineering Institute. Mice brain homogenate prepared in saline was used as a source of AChE; mice serum was the source of BChE.
The AChE activity was determined in a reaction mixture containing 200 μL of a solution of AChE (0.415 U/mL in 0.1 M phosphate buffer, pH 8.0), 300 μL of a solution of 5,5′-dithio-bis(2-nitrobenzoic) acid (3.3 mM DTNB in 0.1 M phosphate buffered solution, pH 7.0, containing NaHCO3 6 mM), and 30 μL of a solution of the inhibitor (six to seven concentrations). After incubation for 20 min at 37° C., acetylthiocholine iodide (300 μL of 0.05 mM water solution) was added as the substrate, and AChE activity was determined by UV spectrophotometry from the absorbance changes at […] for 3 min at 25° C. […] BChE inhibitory activity determinations were similarly carried out using butyrylthiocholine iodide (0.05 mM) as the substrate. Results are reported as the means ±SEM of IC50 obtained from at least three independent measures.
(In general: In Ellman's method for cholinesterases, released thiocholine reacts with DTNB.)

For assay [1], the target named is T2, mice brain AChE (Mus musculus, UniProt P21836).
T2 construct: Mice brain homogenate prepared in saline was used as a source of AChE; from tissue; host or cells: mouse brain homogenate
T2 sequence (P21836 32-614): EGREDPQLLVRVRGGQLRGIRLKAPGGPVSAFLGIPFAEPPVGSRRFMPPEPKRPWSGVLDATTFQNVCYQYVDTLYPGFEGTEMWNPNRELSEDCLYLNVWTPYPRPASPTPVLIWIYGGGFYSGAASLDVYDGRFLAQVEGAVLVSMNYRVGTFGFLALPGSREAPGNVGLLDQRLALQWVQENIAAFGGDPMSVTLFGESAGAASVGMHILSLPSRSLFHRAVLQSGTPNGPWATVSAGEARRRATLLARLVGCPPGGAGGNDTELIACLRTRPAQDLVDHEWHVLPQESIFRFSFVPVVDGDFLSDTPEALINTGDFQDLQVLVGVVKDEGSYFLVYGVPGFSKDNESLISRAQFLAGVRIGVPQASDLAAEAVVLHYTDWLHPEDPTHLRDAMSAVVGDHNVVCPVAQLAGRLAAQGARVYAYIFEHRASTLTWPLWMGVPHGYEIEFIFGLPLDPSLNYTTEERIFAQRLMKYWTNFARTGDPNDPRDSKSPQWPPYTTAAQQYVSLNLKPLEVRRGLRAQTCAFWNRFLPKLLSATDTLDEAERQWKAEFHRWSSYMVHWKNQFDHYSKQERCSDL
Briefly: AChE inhibition, Ellman spectrophotometric assay, mice brain homogenate. The conditions noted are these: for IC50: mean ± SEM, at least three measures, hydrochlorides, 20 min preincubation at 37° C.; for AChE selectivity: mice serum BChE versus mice brain AChE IC50. The assay is classed as biochemical. On the procedure:
as §1
After incubation for 20 min at 37° C., acetylthiocholine iodide (300 μL of 0.05 mM water solution) was added as the substrate, and AChE activity was determined by UV spectrophotometry from the absorbance changes at […] for 3 min at 25° C. […] BChE inhibitory activity determinations were similarly carried out using butyrylthiocholine iodide (0.05 mM) as the substrate. Results are reported as the means ±SEM of IC50 obtained from at least three independent measures.

The target in assay [2] is T3, AChE-induced Aβ (1-40) aggregation (human recombinant AChE) (Homo sapiens, UniProt P22303).
T3 construct: purchased Sigma-Aldrich
The assay can be described thus: Inhibition of AChE-induced Aβ aggregation, thioflavin T fluorescence. Type of assay: biochemical. The conditions noted are these: for IC50: extrapolated from inhibition curves, read-out: IC50 ± SEM, AChE-induced Aβ aggregation; for inhibition at 100 µM: inhibitor 100 μM, read-out: Inhibition (%) 100 μM ± SEM; for inhibition at 400 µM: read-out: Inhibition (%) 400 μM ± SEM; for inhibition of AChE-induced Aβ aggregation, factor compared with propidium: relative to propidium. As to the method: Aliquots of 2 μL Aβ (1-40) peptide (Biosource), lyophilized from 2 mg/mL HFIP solution and dissolved in DMSO, were incubated for 48 h at room temperature in 0.215 M sodium phosphate buffer (pH 8.0) at a concentration of 230 μM. For coincubation experiments, aliquots (16 μL) of human recombinant AChE (Sigma-Aldrich) (final concentration of 2.3 μM) and AChE in the presence of 2 μL of the tested inhibitors were added. Each assay was run in duplicate. To quantify amyloid fibril formation, the thioflavin T fluorescence method was then applied.
Fluorescence was monitored with excitation at 446 nm and emission at 490 nm. The percent inhibition of the AChE-induced aggregation due to the presence of increasing concentrations of the inhibitor was calculated by the following expression: 100−(IFi/IFo×100), where IFi and IFo were the fluorescence intensities obtained for Aβ plus AChE in the presence and in the absence of inhibitor, respectively, after subtracting the fluorescence of respective blanks. Inhibition curves and linear regression parameters were obtained for each compound, and the IC50 was extrapolated.

The target in assay [3] is T2, mice brain AChE. The conditions noted are these: background statement; cited from earlier work.
The mark [4] stands for this setting: inhibitor 400 μM, Aβ 230 μM, AChE 2.3 μM, 48 h.
[5] abbreviates: relative to (−)-MEP (hydrochloride).

“And” between values parts separate entries of the source, which are not always exact repeats. Equal values may be shown once. Where a name gives a salt, the structure may show the parent alone.

T3 sequence (P22303 32-614): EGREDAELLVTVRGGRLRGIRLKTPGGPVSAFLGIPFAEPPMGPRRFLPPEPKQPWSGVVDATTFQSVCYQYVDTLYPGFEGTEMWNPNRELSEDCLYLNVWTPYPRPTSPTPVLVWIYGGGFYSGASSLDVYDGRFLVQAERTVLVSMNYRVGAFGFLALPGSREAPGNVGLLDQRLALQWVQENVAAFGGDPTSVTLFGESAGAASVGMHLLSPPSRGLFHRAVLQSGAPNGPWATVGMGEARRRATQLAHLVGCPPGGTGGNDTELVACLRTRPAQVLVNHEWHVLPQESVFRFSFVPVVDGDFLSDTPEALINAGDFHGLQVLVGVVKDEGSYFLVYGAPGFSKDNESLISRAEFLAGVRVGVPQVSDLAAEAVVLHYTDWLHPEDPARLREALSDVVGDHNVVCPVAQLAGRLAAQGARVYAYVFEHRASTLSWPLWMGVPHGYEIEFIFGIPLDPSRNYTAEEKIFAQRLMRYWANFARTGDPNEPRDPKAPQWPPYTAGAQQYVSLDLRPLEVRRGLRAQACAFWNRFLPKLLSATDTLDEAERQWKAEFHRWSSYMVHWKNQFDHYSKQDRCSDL
T1 sequence (Q03311 30-603): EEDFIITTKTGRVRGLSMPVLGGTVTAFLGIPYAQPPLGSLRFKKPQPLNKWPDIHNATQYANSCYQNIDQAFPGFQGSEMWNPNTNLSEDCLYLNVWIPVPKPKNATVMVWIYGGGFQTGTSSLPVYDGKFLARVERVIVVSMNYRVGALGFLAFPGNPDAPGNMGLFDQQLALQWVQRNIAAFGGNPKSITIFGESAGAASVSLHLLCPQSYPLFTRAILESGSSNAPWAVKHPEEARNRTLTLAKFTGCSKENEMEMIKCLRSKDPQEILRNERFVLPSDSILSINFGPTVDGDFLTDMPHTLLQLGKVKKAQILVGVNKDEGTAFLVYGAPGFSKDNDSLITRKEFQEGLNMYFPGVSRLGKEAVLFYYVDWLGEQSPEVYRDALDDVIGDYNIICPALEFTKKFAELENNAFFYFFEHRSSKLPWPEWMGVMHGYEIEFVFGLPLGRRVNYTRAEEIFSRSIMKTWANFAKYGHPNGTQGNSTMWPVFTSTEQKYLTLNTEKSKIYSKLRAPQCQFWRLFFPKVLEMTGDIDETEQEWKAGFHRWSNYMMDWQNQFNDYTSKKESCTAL

`CC[C@@]1(c2cccc(O)c2)CCCCN(CCCCCCCCCCCN2CCCC[C@@](CC)(c3cccc(O)c3)C2)C1` [(A = CH2, n = 11)] returned a 50% inhibitory concentration (IC50) against mice serum BChE of 74 ± 11 nM. At mice brain AChE [1], the IC50 turned out to be 24 ± 8 nM and the AChE selectivity was found to be 3.1.
On to `CC[C@@]1(c2cccc(O)c2)CCCCN(CCCCCCCCCN2CCCC[C@@](CC)(c3cccc(O)c3)C2)C1` [(A = CH2, n = 9), N,N′-(1′,9′-Nonylene)-bis-(−)-nor-MEP Hydrochloride], for which, in assay [2], the IC50 was 79 µM and 79.4 µM; the “inhibition of AChE-induced Aβ aggregation, factor compared with propidium” value is reported as approximately 2 times. Further, the inhibition at 100 µM in assay [2] (Aβ 230 μM, AChE 2.3 μM, 48 h) stood at 74.4 ± 4.3%. Also, the inhibition at 400 µM in assay [2] (setting [4]) worked out at 91.7 ± 3.6%. The midpoint of inhibition at mice serum BChE, the IC50, lay at 10 nM. Also, the “BChE inhibition, times more potent than (−)-MEP” value on mice serum BChE (setting [5]) turned out to be 1500 times. Further, the “BChE inhibition, times more potent than rivastigmine” value at mice serum BChE (relative to rivastigmine) was found to be 150 times. At mice brain AChE [1], this compound yielded an IC50 of 3.9 nM and an AChE selectivity of 2.6. Further, the “selectivity for AChE, times that of (−)-MEP” value at mice brain AChE [1] (relative to (−)-MEP) is listed as 7 times. The “fold increase in inhibiting mice brain AChE compared with (−)-MEP” value at mice brain AChE [1] (setting [5]) is listed as 10000 fold. In addition, on mice brain AChE [1] (relative to rivastigmine), the “fold increase in inhibiting mice brain AChE compared with rivastigmine” value was found to be 1400 fold and the “selectivity for AChE, times that of rivastigmine” value is on record as 9 times.
As to `CC[C@@]1(c2cccc(O)c2)CCCCN(CCCCN2CCCC[C@@](CC)(c3cccc(O)c3)C2)C1` [(A = CH2, n = 4), N,N′-(1′,4′-Butylene)-bis-(−)-nor-MEP Hydrochloride], at mice serum BChE, the half-maximal inhibitory concentration (IC50) turned out to be 104 ± 29 nM. For the same compound, at mice brain AChE [1], the IC50 came out at 21400 ± 7600 nM and the AChE selectivity is 0.0049.
For `CC[C@@]1(c2cccc(O)c2)CCCCN(CCCCCCCCN2CCCC[C@@](CC)(c3cccc(O)c3)C2)C1` [(A = CH2, n = 8)], the inhibition at 100 µM in assay [2] (Aβ 230 μM, AChE 2.3 μM, 48 h) was 0%. In assay [2] (setting [4]), the inhibition at 400 µM stood at 0.15 ± 0.2%. This compound also showed an IC50 at mice serum BChE of 63 ± 8 nM. At mice brain AChE [1], this compound gave a half-inhibitory concentration (IC50) of 79 ± 19 nM and an AChE selectivity of 0.80.
With `CC[C@@]1(c2cccc(O)c2)CCCCN(CCCCCCCCCCCCN2CCCC[C@@](CC)(c3cccc(O)c3)C2)C1` [(A = CH2, n = 12)], 100 ± 55 nM corresponded to half-maximal inhibition at mice serum BChE (IC50). On mice brain AChE [1], the IC50 was 42 ± 20 nM and the AChE selectivity was determined as 2.4.
On to `CC[N+](C)(CC)CCC[n+]1c(-c2ccccc2)c2cc(N)ccc2c2ccc(N)cc21` [Propidium iodine, reference compound], for which the inhibition at 100 µM in assay [2] (Aβ 230 μM, AChE 2.3 μM, 48 h) worked out at 16.7 ± 4.4%. Besides, the inhibition at 400 µM in assay [2] (setting [4]) was determined as 79.2 ± 5.9%.
Consider `CC[C@@]1(c2cccc(O)c2)CCCCN(CCCCCN2CCCC[C@@](CC)(c3cccc(O)c3)C2)C1` [(A = CH2, n = 5)], for which the IC50 against mice serum BChE was determined as 192 ± 41 nM. At mice brain AChE [1], this compound returned an IC50 of 4000 ± 1000 nM and an AChE selectivity of 0.048.
Take `CC[C@@]1(c2cccc(O)c2)CCCCN(CCN2CCCC[C@@](CC)(c3cccc(O)c3)C2)C1` [(A = CH2, n = 2)]: the half-maximal inhibitory concentration (IC50) at mice serum BChE is 125 ± 9 nM. On mice brain AChE [1], inhibition was half-maximal at 43000 ± 20000 nM (IC50) and the AChE selectivity is listed as 0.0029.
For `CC[C@@]1(c2cccc(O)c2)CCCCN(CCCCCCN2CCCC[C@@](CC)(c3cccc(O)c3)C2)C1` [(A = CH2, n = 6)] the same measures were 119 ± 20 nM, 1220 ± 20 nM and 0.098.
Regarding `CC[C@@]1(c2cccc(O)c2)CCCCN(CCCCCCCN2CCCC[C@@](CC)(c3cccc(O)c3)C2)C1` [(A = CH2, n = 7)], the IC50 stood at 102 ± 19 nM on mice serum BChE and 270 ± 70 nM against mice brain AChE [1]. The same compound showed an AChE selectivity on mice brain AChE [1] of 0.38.
`CC[C@@]1(c2cccc(O)c2)CCCCN(CCCCCCCCCCN2CCCC[C@@](CC)(c3cccc(O)c3)C2)C1` [(A = CH2, n = 10)]: the IC50 in assay [2] was 83 µM and 83.4 µM; at mice serum BChE, 17 ± 6 nM; against mice brain AChE [1] it was 9.5 ± 4.5 nM. Further, the inhibition at 100 µM in assay [2] (Aβ 230 μM, AChE 2.3 μM, 48 h) worked out at 66.6 ± 1.7%. The inhibition at 400 µM in assay [2] (setting [4]) was determined as 81.8 ± 1.2%. Moreover, the “inhibition of AChE-induced Aβ aggregation, factor compared with propidium” value in assay [2] is reported as approximately 2 times. At mice brain AChE [1], this compound yielded an AChE selectivity of 1.8.
As for `CCC1(c2cccc(O)c2)CCCCN(C)C1` (single isomer, unassigned; (-)) [(−)-meptazinol], the “Inhibition (%) 400 μM ± SEM” value in assay [2] (setting [4]) is listed as 0%. The “mice brain AChE inhibition test, result in words” value on mice brain AChE [3] is “potent AChE inhibitor”. The compound also yielded a concentration for half-maximal inhibition (IC50) against mice serum BChE of 15000 ± 4000 nM. At mice brain AChE [1], this compound gave an IC50 of 41000 ± 14000 nM and an AChE selectivity of 0.37.
With `CC[C@@]1(c2cccc(O)c2)CCCCN(CCCN2CCCC[C@@](CC)(c3cccc(O)c3)C2)C1` [(A = CH2, n = 3)], the 50% inhibitory concentration (IC50) on mice serum BChE turned out to be 132 ± 51 nM; on mice brain AChE [1], 42000 ± 14000 nM. At mice brain AChE [1], this compound came in with an AChE selectivity of 0.0031.

One may read the IC50 as the midpoint of a concentration-inhibition curve. By inhibition is commonly meant the drop in the measured response relative to a control, in per cent.

The record behind these values is patent publication US8232270B2, “Bivalent (−)-meptazinol compounds and/or their salts, and their preparation and futilization” (priority 2006, dated 2012).
